Assays:
[1] = test system: skin; details: FDA Safety Announcement Sep. 13, 2012; cited from earlier work
[2] = test system: skin; details: in vivo
Source text: Menthol can optionally be added to overcome the burning sensation caused by the capsaicin. […] 13, 2012 has reported that skin can burn with menthol concentrations above 3% (http://www.fda.gov/Drugs/DrugSafety/ucm318858.htm). Thus, in one embodiment, the concentration of menthol in the ethosome compositions is less than about 3% by weight. In another embodiment, the concentration of menthol in the ethosome compositions is about 2% by weight.

CC1CCC(C(C)C)C(O)C1 (centres unmarked) [Menthol]
menthol concentrations at which skin can burn [1]: above 3% | burning sensation [2]: can cause a burning sensation on its own

Source: patent US10137079B2, “Transdermal composition for treating pain” (priority 2014, dated 2018)
